Results from US10166197B2, “Sugar ester nanoparticle stabilizers” (St. John's University, priority 2015, dated 2019).

Assay: Dispersion test, USP apparatus II (paddle method), 0.45 μm filtration and HPLC
Assay type: physicochemical
Settings: 0.45 μm pore size filter
Protocol: Dispersion tests were then run on each of the dosage forms using USP apparatus II (the paddle method). Dried samples corresponding to 20 mg of the lyophilized powder were weighed and mixed with 2% SLS and placed into 250 mL of dissolution media with a holding temperature at 37±0.5° C. The rotation speed of the paddle was set to 50 rpm. The dispersion test was performed in two steps: stimulated gastric fluid (pH 1.2) for up to 120 minutes, and changing the pH to pH 6.8 after that by adding 1N NaOH. This is to mimic the gastrointestinal pH conditions. Aliquots of the suspension were taken after 1, 3, 5, 10, 15, 30, 60, 120, 150, and 180 minutes. The aliquots were then filtered through a hydrophilic PTFE membrane filter with 0.45 μm pore size, diluted appropriately with an organic solvent to dissolve drug particles and analyzed for drug content by HPLC.
Dispersion tests were also performed on capsules and tablets of the lyophilized powder.

## CC(C)(Sc1cc(C(C)(C)C)c(O)c(C(C)(C)C)c1)Sc1cc(C(C)(C)C)c(O)c(C(C)(C)C)c1 [neat probucol powder, probucol]
  drug dispersion (result in words): did not demonstrate any drug dispersion
